Measurements as given in PubChem BioAssay AID248 (DTP/NCI, 2004).
Several values for one entry are separate records, joined by “and”; a condition that tells them apart may be missing. Equal values may be shown once. Toxic doses and inconclusive results are not listed. Cut-off read from the data, not from the text of the source: active = T/C of 150% or more; inactive = T/C below 125%.

Tested on: L1210 leukemia ip in BDF1 mice, survival T/C
Assay: NCI In Vivo Anticancer Drug Screen. Data for tumor model L1210 Leukemia (intraperitoneal) in B6D2F1 (BDF1) mice
Conditions: endpoint: mean survival time, higher = longer survival
Procedure, shortened: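 Read-out is survival time, reported as the treated-group measurement over the vehicle-control measurement.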

[1] = dose: 100.0 mg/kg/injection, schedule: Q01DX001 (ip), vehicle: saline with Tween-80
[2] = dose: 400.0 mg/kg/injection, schedule: Q01DX001 (ip), vehicle: saline with Tween-80
[3] = dose: 100.0 mg/kg/injection, schedule: Q01DX009 (ip), vehicle: Klucel (hydroxypropylcellulose) (HPC)
[4] = dose: 100.0 mg/kg/injection, schedule: Q04DX003 (ip), vehicle: Klucel (hydroxypropylcellulose) (HPC)
[5] = dose: 200.0 mg/kg/injection, schedule: Q01DX009 (ip), vehicle: Klucel (hydroxypropylcellulose) (HPC)
[6] = dose: 200.0 mg/kg/injection, schedule: Q04DX003 (ip), vehicle: Klucel (hydroxypropylcellulose) (HPC)
[7] = dose: 400.0 mg/kg/injection, schedule: Q01DX009 (ip), vehicle: Klucel (hydroxypropylcellulose) (HPC)
[8] = dose: 400.0 mg/kg/injection, schedule: Q04DX003 (ip), vehicle: Klucel (hydroxypropylcellulose) (HPC)
[9] = dose: 50.0 mg/kg/injection, schedule: Q04DX003 (ip), vehicle: Klucel (hydroxypropylcellulose) (HPC)

Measured: T/C

COc1cc(N2CCOCC2)ccc1N
inactive: dose: 25.0 mg/kg/injection, schedule: Q01DX009 (ip), vehicle: saline 89 % of control | dose: 25.0 mg/kg/injection, schedule: Q04DX003 (ip), vehicle: saline 100 % of control | dose: 50.0 mg/kg/injection, schedule: Q01DX009 (ip), vehicle: saline 95 % of control | dose: 50.0 mg/kg/injection, schedule: Q04DX003 (ip), vehicle: saline 101 % of control | dose: 100.0 mg/kg/injection, schedule: Q04DX003 (ip), vehicle: saline 103 % of control

CCCCCc1c2c(c(CCCCC)c3c1-c1cccc4cccc-3c14)-c1ccc(C)cc1C2
inactive: [1] 92 % of control | [2] 87 % of control

O=C(c1ccccc1)c1ccn[nH]1
inactive: dose: 100.0 mg/kg/injection, schedule: Q01DX001 (ip), vehicle: Klucel (hydroxypropylcellulose) (HPC) 106 % of control | dose: 200.0 mg/kg/injection, schedule: Q01DX001 (ip), vehicle: Klucel (hydroxypropylcellulose) (HPC) 103 % of control | dose: 400.0 mg/kg/injection, schedule: Q01DX001 (ip), vehicle: Klucel (hydroxypropylcellulose) (HPC) 108 % of control

O=C(O)C(Br)CF (configuration not stated)
inactive: dose: 100.0 mg/kg/injection, schedule: Q04DX002 (ip), vehicle: saline 93 % of control | dose: 200.0 mg/kg/injection, schedule: Q04DX002 (ip), vehicle: saline 97 % of control | dose: 400.0 mg/kg/injection, schedule: Q04DX002 (ip), vehicle: saline 87 % of control

O=C1C(C(Cl)c2ccccc2)SC(c2ccccc2)N1c1ccccc1 (configuration not stated)
inactive: [3] 95 % of control | [4] 102 % of control | [5] 95 % of control | [6] 89 % of control | [7] 95 % of control | [8] 96 % of control

O=S(=O)(F)c1cc(Cl)c(S)cc1Cl
inactive: dose: 25.0 mg/kg/injection, schedule: Q04DX003 (ip), vehicle: Klucel (hydroxypropylcellulose) (HPC) 96 % of control | [9] 96 % of control | [4] 98 % of control and 106 % of control

CS(=O)(=O)NCCOc1ccc(C(=O)O)cc1
inactive: [4] 96 % of control | [6] 101 % of control | [8] 95 % of control

O=C(Nc1ccc(Nc2ccncc2)cc1)c1ccc([N+](=O)[O-])cc1
inactive: [3] 105 % of control | [4] 103 % of control | [5] 92 % of control | [6] 98 % of control | [7] 105 % of control | [8] 95 % of control

c1ccc(-c2cnnn2-c2ccccc2)cc1
inactive: [1] 105 % of control | dose: 200.0 mg/kg/injection, schedule: Q01DX001 (ip), vehicle: saline with Tween-80 100 % of control | [2] 105 % of control

O=C(N/N=C/c1ccccc1O)N/N=C/c1ccccc1O
inactive: [9] 96 % of control | [4] 90 % of control | [6] 88 % of control
